Assays:
[1] = test system: SARS-CoV-2 strain (Wuhan-Hu-1); assay: microbe, parasite or virus in culture; assay type: cell-based; details: Severe acute respiratory syndrome coronavirus 2, A549-ACE2, 24 h
[2] = test system: SARS-CoV-2 nCoV-SH01 strain; design: species or system K18-hACE2 transgenic mice; details: mouse, in vivo

SMILES: CCC(CC)COC(=O)[C@H](C)N[P@](=O)(OC[C@H]1O[C@@](C#N)(c2ccc3c(N)ncnn23)[C@H](O)[C@@H]1O)Oc1ccccc1 [remdesivir]
- EC50 [1]: 60 nM
- SARS-CoV-2 N protein antigen staining in lungs (IHC) [2]: significantly reduced viral antigen staining
- lung pathological features (H&E) [2]: markedly alleviated

Reference: article PMC12583774 (Nature Communications, 2025)
